{"source": "ChEMBL document CHEMBL1149689", "about": "“Pomiferin, histone deacetylase inhibitor isolated from the fruits of Maclura pomifera” (Bioorg Med Chem Lett, 2007)", "key": {"NCI-H23": {"system": "NCI-H23", "test": "cells", "assay_type": "functional", "conditions": "Homo sapiens, NCI-H23, 21 h", "description": "Growth inhibition of human NCI-H23 cells after 21 hrs by MTT assay"}, "HCT-15": {"system": "HCT-15", "test": "cells", "assay_type": "functional", "conditions": "Homo sapiens, HCT-15, 21 h", "description": "Growth inhibition of human HCT15 cells after 21 hrs by MTT assay"}, "in vitro": {"test": "in vitro", "conditions": "human, hepatocytes", "description": "Growth inhibition of human hepatocytes after 21 hrs by MTT assay"}, "Histone deacetylase": {"biological_target": "Histone deacetylase", "test": "Inhibition of HDAC in HeLa cells", "assay_type": "cell-based, Homo sapiens"}, "MDA-MB-231": {"system": "MDA-MB-231", "test": "cells", "assay_type": "functional", "conditions": "Homo sapiens, MDA-MB-231, 21 h", "description": "Growth inhibition of human MDA-MB-231 cells after 21 hrs by MTT assay"}, "LOX IMVI": {"system": "LOX IMVI", "test": "cells", "assay_type": "functional", "conditions": "Homo sapiens, 21 h", "description": "Growth inhibition of human LOX-IMVI cells after 21 hrs by MTT assay"}, "ACHN": {"system": "ACHN", "test": "cells", "assay_type": "functional", "conditions": "Homo sapiens, 21 h", "description": "Growth inhibition of human ACHN cells after 21 hrs by MTT assay"}, "PC-3": {"system": "PC-3", "test": "cells", "assay_type": "functional", "conditions": "Homo sapiens, PC-3, 21 h", "description": "Growth inhibition of human PC3 cells after 21 hrs by MTT assay"}}}
{"smiles": "CC(C)=CCc1c2c(c3occ(-c4ccc(O)c(O)c4)c(=O)c3c1O)C=CC(C)(C)O2", "note": "[POMIFERIN]", "values": [{"measurement": "GI50", "setting": "NCI-H23", "result": 5.14, "unit": "µM"}, {"measurement": "GI50", "setting": "HCT-15", "result": 1.32, "unit": "µM"}, {"measurement": "GI50 at 21 h", "setting": "in vitro", "result": 123, "unit": "µM"}, {"measurement": "IC50", "setting": "Histone deacetylase", "result": 1.05, "unit": "µM"}, {"measurement": "GI50", "setting": "MDA-MB-231", "result": 2.92, "unit": "µM"}, {"measurement": "GI50", "setting": "LOX IMVI", "result": 3.34, "unit": "µM"}, {"measurement": "GI50", "setting": "ACHN", "result": 3.18, "unit": "µM"}, {"measurement": "GI50", "setting": "PC-3", "result": 3.95, "unit": "µM"}]}
{"smiles": "CC(C)=CCc1c2c(c3occ(-c4ccc(O)cc4)c(=O)c3c1O)C=CC(C)(C)O2", "note": "[OSAJIN]", "values": [{"measurement": "GI50", "setting": "NCI-H23", "result": 12, "unit": "µM"}, {"measurement": "GI50", "setting": "HCT-15", "result": 9.65, "unit": "µM"}, {"measurement": "GI50 at 21 h", "setting": "in vitro", "result": "> 500", "unit": "µM"}, {"measurement": "IC50", "setting": "Histone deacetylase", "result": 6.53, "unit": "µM"}, {"measurement": "GI50", "setting": "MDA-MB-231", "result": 11.3, "unit": "µM"}, {"measurement": "GI50", "setting": "LOX IMVI", "result": 11, "unit": "µM"}, {"measurement": "GI50", "setting": "ACHN", "result": 12.1, "unit": "µM"}, {"measurement": "GI50", "setting": "PC-3", "result": 12.3, "unit": "µM"}]}
